# According to PubChem BioAssay AID1508591:
# Conditions: rat; liver microsomes; pH 7.4; 15.0 min; 1.0 µM
row,Compound,half-life [min]
1,NC(=O)C1CCN(c2nc(-c3ccc4occc(=O)c4c3)cs2)CC1,6.19
2,O=C(Nc1nc(-c2ccccc2)cs1)c1ccncc1NS(=O)(=O)c1ccc2c(c1)CCC2,5.6
3,CC(C)CC(=O)Nc1n[nH]c2c1CN(C(=O)C1CCN(C)CC1)C2(C)C,> 30
4,CC(C)n1cc(-c2ccc(Oc3ccccc3)cc2)c2c(N)ncnc21,18
5,COC(=O)[C@H](NC(=O)c1cc(-c2ccccc2)nc2ccccc12)c1ccccc1,11
6,N#Cc1cc(-c2nc(Nc3ccc(F)c(F)c3)c3ccccc3n2)ccn1,> 30
7,CCOc1ccc(CCNC(=O)c2ccnn2Cc2ccccn2)cc1OCC,5.6
8,O=C(Nc1cccc(S(=O)(=O)C(F)(F)F)c1)c1ccccc1NC(=O)c1ccccc1OCC(F)(F)F,> 30
9,Brc1ccc(-c2csc(N3CCCCC3)n2)cc1,3.45
10,Cc1nc(NCc2ccco2)nc2c1C(=O)CC(C)C2 (stereo unspecified),2.7
11,O=C(Cc1cccs1)NCc1nnc2ccc(-c3ccccc3)nn12,17.8
12,CN(C)c1cccc(-c2nnc(N3CCC(C(N)=O)CC3)s2)c1,15.7
13,Cc1nc(NC2CCCCC2)c2nc(-c3ccccc3)n(CCN(C)C)c2n1,3.74
14,COc1cc2c(Oc3ccc(-c4cnc(Nc5ccc(F)cc5)n(C)c4=O)cc3F)ccnc2cc1OCCCN1CCOCC1,> 30
15,COc1cccc(CNc2ccc(S(=O)(=O)Nc3nccs3)cc2)c1N,> 30
16,O=S(=O)(Nc1ccccc1)c1ccc(NCc2cccc(Cl)c2O)cc1,2.2
17,CN(C(=O)CNC(=O)c1ccccc1OCC(=O)Nc1ccc(I)cc1)c1ccccc1,1.44
18,Cc1cc(-c2nnc3n2CCCCC3)c(C)n1-c1ccc(C(C)(C)C)cc1,1.9
19,Cc1cc(C)nc(NC(=S)N2CCN(c3nccc(C(F)(F)F)n3)CC2)c1,16
20,COC(=O)c1ccc2nc(NC3=NC(c4[nH]ncc4Cl)C4=C(CCCC4=O)N3)oc2c1 (stereo unspecified),5.9
21,CCOC(=O)c1ccc(NC(=O)N2Cc3[nH]cnc3C[C@H]2c2nc(C(C)C)no2)cc1,6.65
22,O=C(NCCc1ccccn1)C1CC(=O)N(c2n[nH]c3cc(Br)ccc23)C1 (stereo unspecified),29.7

row,Compound,half-life [min]
1,CC1=C(C(=O)Nc2nc3ccccc3s2)C(c2[nH]ncc2Cl)N=C(Nc2nc3ccccc3o2)N1 (stereo unspecified),10.4
2,O=C(Nc1cccc(F)c1)c1cc(-c2ccc[nH]2)n[nH]1,9.45
3,CC(=O)c1ccc(N[S+](=O)([O-])c2cccc(NC(=O)c3[nH]c(C)c(C(C)=O)c3C)c2)cc1,21
4,CCOc1ccc(CCNC(=O)c2cc3ccccc3n2Cc2cccc(C)c2)cc1OCC,1.6
5,CCc1ccc(S(=O)(=O)Nc2cnccc2C(=O)Nc2nc(-c3ccccc3)cs2)cc1,4.4
6,COc1ccc(OCCN2CCN(C(=O)c3ccc(OC)cc3)CC2)cc1,> 30
7,Cc1ccc(OCCn2c(CCNC(=O)c3ccc(Cl)cc3)nc3ccccc32)cc1,1.8
8,O=C(Nc1cccnc1)c1cccs1,> 30
9,O=C(NCC1(c2nc(-c3ccccc3)cs2)CCOCC1)c1cccc(-c2noc(C(F)(F)F)n2)c1,2.92
10,c1ccc2c(Nc3nccs3)nc(-c3ccncc3)nc2c1,6.4
11,O=C(CNC12CC3CC(CC(C3)C1)C2)c1ccc(Cl)cc1,2.2
12,Cc1ccc(S(=O)(=O)Nc2cccc(C(=O)Nc3nc(-c4ccccc4)cs3)c2)cc1,16
13,O=c1cc(N2CCOCC2)oc2c1ccc1ccccc12,> 30
14,COc1ccc(-c2nc(CS(=O)CC(=O)N3CCC4(CC3)OCCO4)c(C)o2)cc1 (stereo unspecified),> 30
15,COc1cccc(Nc2nc(-c3ccncc3)nc3ccccc23)c1,4.3
16,Cc1nnc(N2C(=O)c3oc4ccccc4c(=O)c3C2c2ccc(F)cc2)s1 (stereo unspecified),> 30
17,Cc1cnc(-c2ccccc2C(F)F)nc1NCC1CN(c2cnccn2)C1,1.8
18,Cn1c(=O)c2c(-c3ccc(Br)cc3)n(CCc3ccccc3)cc2n(C)c1=O,1.23
19,O=C(Nc1ncc(Cc2ccc(C(F)(F)F)cc2)s1)c1ccc(-c2ccccc2[N+](=O)[O-])o1,> 30
20,CN(C(=O)CSc1nc2ccc(NC(=O)c3ccc(F)cc3)cc2s1)c1ccccc1,2.04
21,COCc1cc(C)nc(SCC(=O)c2ccc(O)c(O)c2)c1C#N,19
22,COC(=O)c1ccnc(-c2cc(C(=O)Nc3ccc(C4(N)CC4)cc3)ccn2)c1,> 30

row,Compound,half-life [min]
1,O=S(=O)(Nc1ccc2ccccc2c1)c1ccc(NCc2ccc(Br)cc2O)cc1,15
2,CN(C)CCOC1=Cc2ccccc2Sc2ccc(Cl)cc21,1.29
3,Cc1cccc(N(C)c2nc3ccccc3c3nnc(C)n23)c1,1.57
4,COCCNC(=O)c1ccc(Cn2c(=S)[nH]c3cc4c(cc3c2=O)OCO4)cc1,> 30
5,Cc1ccc(OCCn2c(CCNC(=O)C3CCCCC3)nc3ccccc32)cc1,1.6
6,O=C(NCc1ccc(N2CCCC2)nc1)c1cc(Cl)ccc1O,1.9
7,Cc1c(-c2nsc(NC(=O)c3cccc(Cl)c3)n2)nnn1-c1ccccc1C(F)(F)F,> 30
8,NC(=O)C1CCN(c2ncc(Br)cn2)CC1,> 30
9,COc1ccccc1-c1cc2c(ccn2C)c(C(=O)NCC2CCN(C)C(=O)C2)n1 (stereo unspecified),> 30
10,Cc1cccc2c(C(=O)O)cc(-c3cccs3)nc12,8.96
11,Cc1ccc(-c2cc(C(=O)Nc3ccc(S(C)(=O)=O)cc3)c3ccccc3n2)cc1C,> 30
12,CCOc1ccc(-c2csc(N3CCC(C(N)=O)CC3)n2)cc1,9.24
13,CCOc1ccc(CNc2ccc3c(c2)ncn3C)cc1,21
14,CCOc1ccc(CCN(C)C(=O)c2cc3sccc3n2Cc2ccccc2)cc1OCC,1.7
15,CCc1nnc(NC(=O)c2nc(S(=O)(=O)Cc3ccc(C)cc3)ncc2Cl)s1,7.58
16,Cc1cccc(-c2noc([C@@H]3Cc4nc[nH]c4CN3C(=O)CC(C)(C)CC(=O)O)n2)c1,> 30
17,O=C(Cc1n[nH]c(=O)c2ccccc12)NC1CCCc2c1[nH]c1c(Cl)cccc21 (stereo unspecified),8.05
18,Cc1ccc2oc(NC3=NC(c4ccccc4Cl)C4=C(CCCC4=O)N3)nc2c1 (stereo unspecified),> 30
19,Nc1scc2c(C(=O)O)nn(-c3ccccc3)c(=O)c12,> 30
20,CCOC(=O)C1CCN(C(=O)C(C)(C)NC(=O)Nc2ccc(-c3ccccc3)cc2)CC1,1.4
21,COC(=O)c1c(NC(=O)Cc2coc3cc(C)ccc23)sc2c1CCC2,2.31
22,COc1cc2nccc(Oc3ccc(NC(=O)Nc4cc(C)on4)c(Cl)c3)c2cc1OC,> 30

row,Compound,half-life [min]
1,COc1cc(F)ccc1-c1nc(-c2c(C)noc2C)cc2c1cc(C)n2C,21.6
2,CCN(c1ccccc1)S(=O)(=O)c1cc(C(=O)Nc2ccc(Br)cc2)ccc1F,1.5
3,COC(=O)c1ccc(O)c2ncc(N3CCN(C)CC3)cc12,4.16
4,CNS(=O)(=O)c1cc(-c2nn3c(C)nnc3c3ccccc23)ccc1C,> 30
5,CSc1ccc(C(=O)c2[nH]c(=O)[nH]c2C)cc1,> 30
6,Cc1ccccc1NC(=O)Nc1cccs1,> 30
7,CCc1cc(Cl)c(OC)c(C(=O)NC[C@@H]2CCCN2CC)c1O,1.71
8,Cc1ccc2c(c1)[nH]c1c(N3CCN(Cc4ccccc4)CC3)ncnc12,7.49
9,COC[C@@H]1CN(C(=O)c2nn(C)c3ccccc23)C[C@H]1c1nc(C)no1,25.7
10,CCCCCCCCc1ccc(CCC(N)(CO)CO)cc1,> 30
11,O=C(NCc1ccccc1)c1nc(S(=O)(=O)Cc2ccc(F)cc2)ncc1Cl,1.98
12,Cc1ccc(OCCn2c(CCNC(=O)N3CCCCC3)nc3ccccc32)cc1,1.7
13,CCN1C(=O)c2ccccc2[S@](=O)c2ccc(C(=O)NCc3ccc(C#N)cc3)cc21,21
14,CCOC(=O)C1(Cc2ccccc2C(F)(F)F)CCN(C2CCN(C(C)C)CC2)CC1,> 30
15,c1ccc2c(Nc3ccon3)nc(-c3ccncc3)nc2c1,6.2
16,CNc1nc2c(s1)C(c1ccc(Cl)cc1)CC(=O)N2 (stereo unspecified),2.07
17,O=C1C(c2ccc(C(F)(F)F)cc2)=C(Nc2ccc(Cl)cc2)c2ccccc21,29.2
18,O=S(=O)(Nc1ccccc1)c1ccc(NCc2ccc(Br)cc2O)cc1,2
19,CC(=O)N1CCC(NC(=O)c2nc(-c3ccccc3)cc3[nH]ccc23)CC1,> 30
20,COC(=O)c1ccnc(-c2cc(C(=O)NCCc3ccccc3)ccn2)c1,1.98
21,Cc1cc(C)nc(NC(=S)N2CCN(c3ccc(C(F)(F)F)cc3Cl)CC2)c1,> 30
22,Cc1cccc(-c2cc(NC(=O)c3ccccc3C)n(-c3ccccc3)n2)c1,3.18

row,Compound,half-life [min]
1,CCc1ccc2oc(NC3=NC(c4[nH]ncc4Cl)C4=C(CCCC4=O)N3)nc2c1 (stereo unspecified),22
2,Cc1cc(SCC(=O)c2ccccc2)n2ncc(-c3ccccc3)c2n1,3.77
3,CC(C)NC(=O)c1nc(-c2ccc(Cl)nc2)c2ccccn12,19.6
4,CN(C)C(=O)c1cc2cnc(Nc3ccc(N4CCNCC4)cn3)nc2n1C1CCCC1,> 30
5,O=C(Nc1cccc(Cc2ccccc2)n1)c1ccc(-c2cccc([N+](=O)[O-])c2)o1,1.7
6,Cc1ccc(-c2cc(C(=O)NCc3cnn(C)c3)c3cc(Br)ccc3n2)cc1,> 30
7,COc1ccc(-n2nc(C3CCCN(C(=O)c4cccc(OC)c4)C3)[nH]c2=O)cc1 (stereo unspecified),23.4
8,CN1CCN(C(=O)Cc2c[nH]c3ncc(-c4ccccc4Oc4ccccc4)cc23)CC1,1.72
9,COc1cccc(CNCCSc2nnnn2C)c1OCc1ccc(Cl)cc1Cl,1.35
10,COc1ccc(-c2nc3c(c(SCC(=O)Nc4ccc(C(=O)O)cc4)n2)Cc2ccccc2O3)cc1,> 30
11,C[C@H]1CN(C(=O)c2nn(C)c3ccccc23)C[C@@H]1c1nc(-c2ccncc2)no1,5.01
12,Cc1ccc(-c2cc(C(=O)Nc3ccc(C#N)cc3)c3ccccc3n2)cc1C,> 30
13,Nc1nc(N)c2c(OCC3CCN(Cc4ccccc4F)CC3)cccc2n1,> 30
14,COc1cc(NC(=O)c2cc(-c3ccccc3O)no2)cc(OC)c1OC,12.5
15,CCn1c(=NC(=O)c2ccc(S(=O)(=O)N3CCCCC3)cc2)sc2cccc(OC)c21,9.5
16,O=C(Nc1nc(-c2ccccc2)cs1)c1ccncc1NS(=O)(=O)c1ccc(Cl)cc1,18.2
17,CCCC1=Nc2cc(C(=O)NC3CCCCC3)ccc2Sc2ccc(C)cc21,1.48
18,CCCCOc1ccc(C2c3c(oc4ccc(C)cc4c3=O)C(=O)N2CCCN(C)C)cc1OCC (stereo unspecified),25.9
